What was measured:
U251 glioma cells = assay: Ketamine treatment of U251 glioma cell culture, mRNA (RT-qPCR) and protein (Western blot) levels; format: cell-based, human; conditions: U251 glia
Method: (§1) Lysates obtained from cells subjected to knockdown or overexpression were used to isolate total RNA (Zymo Research). The purity of the extracted RNA samples was assessed using a Nanodrop instrument (Thermo Scientific). All samples had acceptable A260/A280 ratios. AHR, ARNT, AHRR, IDO1, and TDO2 mRNAs levels were quantified by reverse transcription quantitative PCR (RT-qPCR) using a one step RNA-to-Ct™ kit (Life Technologies). The kit contains reagents for converting RNA to cDNA, followed by primer-specific amplification of the desired mRNA (in this case, AHR, ARNT, AHRR, IDO1, and TDO2). GAPDH was used as a reference gene. The quantification of these mRNAs was carried out by employing the ΔΔCt method as described elsewhere (Ingle et al., Cancer Discovery 3(7):812-825, 2013).
(§2) Cell lysates obtained after transfections and from LCLs were subjected to Western immunoblotting to detect levels of AHR, AHRR, ARNT, TDO2, and IDO1 proteins. Briefly, equal amounts of protein (as determined by the BCA protein assay) were loaded onto premade Criterion gels (Bio-Rad) and run for 1 hour at 180V. Proteins from the gels were electrophoretically transferred onto PVDF membranes and blocked at room temperature for 1 hour with 5% non-fat milk dissolved in TBST. The membranes were incubated with primary antibodies (anti-AHR from GeneTex, Inc. (Irvine, Calif.); anti-ARNT and anti AHRR from Sigma (St. Louis, Mo.); TDO2 from OriGene Technologies, Inc.; and IDO1) dissolved in 5% non-fat milk containing TBST at 4° C. overnight with gentle rocking. Following incubation, the membranes were vigorously washed with TB ST several times and then incubated with appropriate secondary antibodies, dissolved in 5% non-fat milk containing TBST at room temperature for 1 hour. Several TBST washes were carried out before ECL reagents were applied to the membranes and radiographic images were captured on X-ray films (GE). B-actin protein also was detected and served as a loading control. Quantification of Western immunoblots was carried out using NIH Image-J (Abramoff et al., Biophotonics Intl 11(7):36-42, 2004), and plotted in GraphPad-Prism software.

iPSC-derived neurons = assay: Ketamine treatment of iPSC-derived neuron culture, mRNA and protein levels; format: cell-based, human
Method: Human induced pluripotent stem cells (iPSCs) were purchased from Axol, UK and were differentiated as per the company's protocol. The cells were differentiated for 30 days before being used for lentivirus-mediated knockdown experiments.
as §1, §2

[1] = cited from earlier work
glioblastoma cells = assay: Secreted kynurenine in conditioned media of glioblastoma cells (HPLC); conditions: ketamine vs vehicle (FIG. 10)
[2] = other NMDA receptor antagonists; cited from earlier work
[3] = ketamine vs vehicle (FIGS. 8A, 8B)

Structure (SMILES)	protein level of IDOL (U251 glioma cells; ketamine for 24 hours vs vehicle (FIG. 9A))	mRNA level of AHRR (U251 glioma cells; [3])	mRNA level of IDOL (U251 glioma cells; [3])	mRNA level of TDO2 (U251 glioma cells; [3])	mRNA level of AHRR (iPSC-derived neurons; ketamine vs vehicle (FIG. 8C))	mRNA level of IDOL (iPSC-derived neurons; ketamine vs vehicle (FIG. 8C))	mRNA level of TDO2 (iPSC-derived neurons; ketamine vs vehicle (FIG. 8C))	protein level of AHRR (iPSC-derived neurons; ketamine vs vehicle (FIG. 9B))	protein level of IDOL (iPSC-derived neurons; ketamine vs vehicle (FIG. 9B))	protein level of TDO2 (iPSC-derived neurons; ketamine vs vehicle (FIG. 9B))	effect on mood ([1]; severely depressed patients)	duration of effects ([1]; single infusion)	secreted KYN in cell culture conditioned media (glioblastoma cells)	ketamine-like antidepressant effects [2]
CNC1(c2ccccc2Cl)CCCCC1=O (stereo not drawn) [Ketamine]	decreased levels	Decreased levels	decreased levels	decreased levels	Decreased levels	decreased levels	decreased levels	Decreased levels	decreased levels	decreased levels	rapid improvement in mood	last for weeks	decreased levels	–
C[C@]12N[C@H](Cc3ccccc31)c1ccccc12 [MK801]	–	–	–	–	–	–	–	–	–	–	–	–	–	fail to demonstrate ketamine-like antidepressant effects
CC12CC3CC(C)(C1)CC(N)(C3)C2 [memantine]	–	–	–	–	–	–	–	–	–	–	–	–	–	fail to demonstrate ketamine-like antidepressant effects

Reference: patent US11122997B2, “Modulating the aryl hydrocarbon receptor system to treat major depressive disorder” (Mayo Foundation for Medical Education and Research, priority 2015, dated 2021)
